# What was measured:
# Assay type in all cases: cell-based, mouse
# melanoma cells [1] = experiment: Soft agar assay for colony formation; settings: 2% methyl sulfone; control hundreds of colonies
# Procedure: Cells were plated on 8-35 mm plates that contained base agar with and without 2% methyl sulfone. To make base agar, 1% agar (DNA grade; Difco Bacto Agar; Becton Dickenson and Company, Sparks, Md.), was mixed in water at room temperature, melted in a microwave, and cooled to 40° C. before using. For drug plates, 1% agar was combined (1:1) with 4% methyl sulfone in 2×RPMI medium with sodium bicarbonate supplemented with 10% FBS and 5% penicillin/streptomycin. For control plates, 1% agar was combined (1:1) with 2×RMPI medium. Agar +/−2% methyl sulfone was added to appropriate 35 mm tissue culture plates and stored overnight at 4° C. The next day top agar and cells were placed on top of the base agar. Top agar was made with 0.66% agar in water. The agar was melted in a microwave, cooled, and stored at 40° C. 2×RPMI medium and 4% methyl sulfone was also stored at 40° C. Cells were trypsinized and counted for a final concentration of 5×10^3 cells/plate. Cell counts were adjusted to 2×10^5 cells/ml and 0.05 ml of the cell suspension was added to 15 ml centrifuge tubes (2 each). Base agar plates were removed from 4° C. and allowed to warm to room temperature for approximately 30 minutes prior to plating. […] Colonies were photographed and counted with a dissecting microscope. […]
# melanoma cells [2] = experiment: Cell invasion assay (Transwell, ECM gel); settings: 2% methyl sulfone
# Procedure: Invasion assays were performed in Transwell chambers (Corning). The 8 μm pore membranes of the upper chambers were coated with ECM gel from Engelbreth-Holm-Swarm murine sarcoma (Sigma), diluted 1:6 with RPMI medium +/−2% methyl sulfone, and placed in a well with RPMI medium +/−2% methyl sulfone. Cells (1×10^5 cells/200 μl) were seeded into appropriate upper chambers in RMPI medium+/−2% methyl sulfone. After 20 hours of incubation at 37° C., cells were removed from top surface of the chamber and filters were fixed with 5% glutaraldeyde. Cells on the lower surface of the filter were stained with a 0.5% solution of toluidine blue. Membranes of inserts were removed with a razor, mounted between a glass slide and a coverslip, and held in place with scotch tape. Cells were photographed and counted at the Center for Cell Analysis and Modeling, University of Connecticut Health Center, Farmington, Conn., with an Axioplan CCD Microscope equipped with a 40×1.3 NA FL objective lens and high speed digital cooled CCD camera via Metamorph image acquisition and analysis software (Universal Imaging Corp., Downington, Pa.). All assays were performed in triplicate.
# A second classic characteristic of metastatic cells is their ability to migrate through an extracellular matrix. We determined whether methyl sulfone altered this ability in melanoma cells. […]
# [3] = system: SKP2 and p27 in 66 and M3 cells; experiment: Immunofluorescence of SKP2 and p27 in cancer cells (Example 2); settings: 2% methyl sulfone, four weeks
# Description: SKP2 is a ubiquitin ligase that is active in cell nuclei and is expressed in many types of malignant cells. SKP2 promotes cell cycling and cell proliferation and promotes the degradation of the tumor suppressor protein p27. p27 is a tumor suppressor that is active when located in cell nuclei and in a non-phosphorylated form. p27 promotes cell cycle arrest and senescence.
# In normal differentiated cells, p27 (non-phosphorylated active form) is located in the nucleus. […] This was confirmed in the experiments described below. The nuclei were stained with DAPI (blue) and corresponding p27 (red) or SKP2 (red), and then merged the p27/DAPI and SKP2/DAPI photos.
# Cells were plated at 1×10^5 cells/ml on 12 mm round coverslips in 35 mm tissue culture plates (final volume of media was 1.5 ml/35 mm plate). At 24 hours after plating, media was replaced with fresh media containing 2% methyl sulfone and cells were incubated in media/2% methyl sulfone for four weeks. Media/2% methyl sulfone was changed every Monday, Wednesday, and Friday Immunofluorescence was performed at four weeks after plating to look for the presence of the following proteins: SKP2 and p27 (Santa Cruz Biotechnology). […]
substance,measurement,setting,value
methyl sulfone,colony formation on soft agar (anchorage-independent growth),melanoma cells [1],no colony formation
same,cells that migrated through the extracellular matrix,melanoma cells [2],none and unable to pass through the membrane
same,SKP2 level and location,[3],low levels of SKP2 in the cytoplasm
same,p27 expression and location,[3],high expression of p27 in the nucleus

# From patent US10363229B2, “Methods and compositions for the treatment of cancer” (priority 2009, dated 2019)
